Tests used:
[1] = refractive index (Na D-line) (dimensionless); settings: 101 kPa, Liquid, Standard Abbe refractometry
[2] = molar heat capacity at constant pressure; settings: 101 kPa, Liquid, Small sample (50 mg) DSC

CCC[N+]1(C)CCCC1.O=S(=O)([N-]S(=O)(=O)C(F)(F)F)C(F)(F)F
Settings | molar heat capacity at constant pressure, [2] [J/K/mol] | refractive index, [1]
293.15 K | – | 1.42208
298.15 K | – | 1.42069
303.15 K | – | 1.41928
308.15 K | – | 1.41787
313.15 K | 541 | 1.41644
314.15 K | 544 | –
315.15 K | 548 | –
316.15 K | 551 | –
317.15 K | 554 | –
318.15 K | 556 | 1.415
319.15 K | 559 | –
320.15 K | 561 | –
321.15 K | 563 | –
322.15 K | 565 | –
323.15 K | 567 | 1.41354
324.15 K | 569 | –
325.15 K | 571 | –
326.15 K | 573 | –
327.15 K | 575 | –
328.15 K | 576 | 1.41212
329.15 K | 578 | –
330.15 K | 579 | –
331.15 K | 581 | –
332.15 K | 582 | –
333.15 K | 584 | 1.41073
334.15 K | 585 | –
335.15 K | 586 | –
336.15 K | 588 | –
337.15 K | 589 | –
338.15 K | 590 | 1.40932
339.15 K | 591 | –
340.15 K | 593 | –
341.15 K | 594 | –
342.15 K | 595 | –
343.15 K | 597 | 1.40796
344.15 K | 598 | –
345.15 K | 599 | –
346.15 K | 600 | –
347.15 K | 601 | –
348.15 K | 601 | –
349.15 K | 602 | –
350.15 K | 604 | –
351.15 K | 604 | –
352.15 K | 605 | –
353.15 K | 606 | –

— the NIST ThermoML archive (doi:10.1016/j.jct.2013.08.021)
